Reference: patent EP0015817A1, “Piperidine derivatives, process for their preparation and their use in therapeutical compositions” (METABIO-JOULLIE Société anonyme:, priority 1979, dated 1980)
Like-named read-outs stand apart in the source and are kept apart here.

Assays:
duodénum isolé de rat = experiment: Antispasmodic action: antagonism of barium chloride-induced contraction on isolated rat duodenum (Magnus method); conditions: for IC50: read-out: Concentrations molaires inhibitrices 50 %
Experimental: Les essais sont effectués sur le duodénum isolé de rat en survie dans du liquide de Tyrode oxygéné et à température de 37°C (cuve de 20 ml, bain- marie à organes isolés type Valette).
Le tonus et les mouvements de l'organe isolé sont enregistrés par la méthode de Magnus (R.) (Arch. Ges. Physiol. 1904, 102; 123) à l'aide d'une jauge de contrainte reliée à un enregistreur électronique Electromed.
L'antagonisme exercé par le produit étudié est recherché vis-à-vis des effets contracturants musculotropes du chlorure de baryum.
La papavérine est utilisée comme substance antagoniste de référence.
On détermine la concentration molaire du produit qui diminue de 50 % les effets du chlorure de baryum.

[1] = Acute toxicity (LD50) in mice; conditions: mouse, in vivo, souris Swiss NMRI, read-out: DL50 (the source's name)
Experimental: La DL50 a été déterminée chez la souris Swiss NMRI sur le bromhydrate de la benzyloxy-4 pipéridine : - voie orale DL50 75 mg/kg - voie I.V. DL50 32,5 mg/kg

SMILES: COc1ccc(Cc2nccc3cc(OC)c(OC)cc23)cc1OC [Papavérine, reference compound]
- IC50 (duodénum isolé de rat; Rattus norvegicus): 12.5 µM

SMILES: c1ccc(COC2CCNCC2)cc1 [Benzyloxy-4 pipéridine (bromhydrate), Bromhydrate de benzyloxy-4 pipéridine]
- LD50 ([1]; iv, voie I.V.): 32.5 mg/kg
- LD50 ([1]; po, voie orale): 75 mg/kg
- IC50 (duodénum isolé de rat; concentration reducing by 50 % the effects of chlorure de baryum, isolated rat duodenum in oxygenated Tyrode, 37°C): 18 µM
- activité antispasmodique comparée à celle de la papavérine (duodénum isolé de rat; qualitative comparison with papavérine, chlorure de baryum contraction, isolated rat duodenum): sensiblement égale à celle de la papavérine
